Reference: patent US12692249B2, “WDR5 inhibitors and modulators” (Vanderbilt University, priority 2019, dated 2026)

Test system: MV4:11 human cancer cell lines
Assay: Cellular viability / anti-proliferative assay, CellTiter-Glo, 5 day protocol
Format: cell-based
Details: Homo sapiens, MV4-11, 120 h, MV4:11 cells; 5 day incubation; CellTiter-Glo; mean of at least two replicates; read-out: GI50 on cellular proliferation of MV4:11 human cancer cell lines
Method: Cellular Viability of Human Tumor Cell Lines
Anti-proliferative activity using MLL-harboring cell lines. MV-4-11 and K562 cells are grown in IMDM media supplemented with 10% FBS and 1% penicillin/streptomycin, Molm-13 cells are cultured in RPMI-1640 media supplemented with 10% FBS and 1% penicillin/streptomycin. Viability assays are performed by dispensing 200 cells at 7200 cells/mL into each well of an opaque 384-well plate and adding compounds at the indicated concentrations in a final volume, of 32 μL. and a final concentration of DMSO of 0.3% for all samples. A certain range of compound concentrations is made through a series of 2-fold dilutions starting 30 μM at the highest, total 22 dilutions. After a set incubation period, 5 day protocol, the viability of cells in each well is assessed using the CellTiter-Glo assay (Promega), read on a 96 Microplane Luminometer (Cytation 3, BioTek). Serial dilutions of each cell type are performed in all assays to generate standard curves and the final densities of cells are determined within the dynamic range of the instrument. GI50 values are calculated based on XLfit software (IDBS, Guildford, UK) with Sigmoidal Dose-Response Model. Each compound is tested in minimum of two replicates. Data are expressed as mean.

Structure (SMILES) | GI50
CCc1cc(C(=O)Nc2nccn2C)c2nccc(N3CCc4c(cc(Cn5ccnc5)cc4-c4cn(C)nc4C(F)(F)F)C3=O)c2c1 [Example 161, 4-(7-((1H-Imidazol-1-yl)methyl)-5-(1-methyl-3-(trifluoromethyl)-1H-pyrazol-4-yl)-1-oxo-3,4-dihydroisoquinolin-2(1H)-yl)-6-ethyl-N-(1-methyl-1H-imidazol-2-yl)quinoline-8-carboxamide] | 59 nM
CCCCNC(=O)c1cc(OC)cc2c(N3CCc4c(cc(Cn5ccnc5)cc4-c4cn(C)nc4C(F)(F)F)C3=O)ccnc12 [Example 48, 4-(7-((1H-Imidazol-1-yl)methyl)-5-(1-methyl-3-(trifluoromethyl)-1H-pyrazol-4-yl)-1-oxo-3,4-dihydroisoquinolin-2(1H)-yl)-N-butyl-6-methoxyquinoline-8-carboxamide] | 119 nM
CCc1cc(N2CCN(CCOC)CC2)c2nccc(N3CCc4c(cc(Cn5ccnc5)cc4-c4cn(C)nc4C(F)(F)F)C3=O)c2c1 [Example 210] | < 20 nM
COc1cc(C(=O)NC2CN(C(C)=O)C2)c2nccc(N3CCc4c(cc(Cn5ccnc5)cc4-c4cn(C)nc4C(F)(F)F)C3=O)c2c1 [Example 226, 4-(7-((1H-Imidazol-1-yl)methyl)-5-(1-methyl-3-(trifluoromethyl)-1H-pyrazol-4-yl)-1-oxo-3,4-dihydroisoquinolin-2(1H)-yl)-N-(1-acetylazetidin-3-yl)-6-methoxyquinoline-8-carboxamide] | 43 nM
CCc1cc(N2CCN(C(C)C)CC2)c2nc(C)cc(N3CCc4c(cc(Cn5ccnc5)cc4-c4cn(C)nc4C(F)(F)F)C3=O)c2c1 [Example 137, 7-((1H-Imidazol-1-yl)methyl)-2-(6-ethyl-8-(4-isopropylpiperazin-1-yl)-2-methylquinolin-4-yl)-5-(1-methyl-3-(trifluoromethyl)-1H-pyrazol-4-yl)-3,4-dihydroisoquinolin-1(2H)-one] | < 20 nM
COc1cc(C#N)c2nccc(N3CCc4c(cc(Cn5ccnc5)cc4-c4cn(C)nc4C(F)(F)F)C3=O)c2c1 [Example 205] | < 20 nM
CCc1cc(C(=O)NC2CCCC2)c2nccc(N3CCc4c(cc(Cn5ccnc5)cc4-c4cn(C)nc4C(F)(F)F)C3=O)c2c1 [Example 164, 4-(7-((1H-Imidazol-1-yl)methyl)-5-(1-methyl-3-(trifluoromethyl)-1H-pyrazol-4-yl)-1-oxo-3,4-dihydroisoquinolin-2(1)-yl)-N-cyclopentyl-6-ethylquinoline-8-carboxamide] | 155 nM
COc1cc(C(=O)N2CCOCC2)c2nccc(N3CCc4c(cc(Cn5ccnc5)cc4-c4cn(C)nc4C(F)(F)F)C3=O)c2c1 [Example 46, 7-((1H-Imidazol-1-yl)methyl)-2-(6-methoxy-8-(morpholine-4-carbonyl)quinolin-4-yl)-5-(1-methyl-3-(trifluoromethyl)-1H-pyrazol-4-yl)-3,4-dihydroisoquinolin-1(2H)-one] | 444 nM
COc1cc(N2CCN(C)CC2)c2nc(C)cc(N3CCc4c(cc(Cn5ccnc5)cc4-c4cn(C)nc4C(F)(F)F)C3=O)c2c1 [Example 102, 7-((1H-Imidazol-1-yl)methyl)-2-(6-methoxy-2-methyl-8-(4-methylpiperazin-1-yl)quinolin-4-yl)-5-(1-methyl-3-(trifluoromethyl)-1H-pyrazol-4-yl)-3,4-dihydroisoquinolin-1(2H)-one] | < 20 nM
COc1cc(-c2nnn[nH]2)c2nc(C)cc(N3CCc4c(cc(Cn5ccnc5)cc4-c4cn(C)nc4C(F)(F)F)C3=O)c2c1 [Example 196, 7-((1H-Imidazol-1-yl)methyl)-2-(6-methoxy-2-methyl-8-(1H-tetrazol-5-yl)quinolin-4-yl)-5-(1-methyl-3-(trifluoromethyl)-1H-pyrazol-4-yl)-3,4-dihydroisoquinolin-1(2H)-one] | > 10000 nM
COc1cc(N2CCOCC2)c2nc(C)cc(N3CCc4c(cc(Cn5ccnc5)cc4-c4cn(C)nc4C(F)(F)F)C3=O)c2c1 [Example 146, 7-((1H-Imidazol-1-yl)methyl)-2-(6-methoxy-2-methyl-8-morpholinoquinolin-4-yl)-5-(1-methyl-3-(trifluoromethyl)-1H-pyrazol-4-yl)-3,4-dihydroisoquinolin-1(2H)-one] | 26 nM
COc1cc(C(N)=O)c2nc(C)cc(N3CCc4c(cc(Cn5ccnc5)cc4-c4cn(C)nc4C(F)(F)F)C3=O)c2c1 [Example 198, 4-(7-((1H-Imidazol-1-yl)methyl)-5-(1-methyl-3-(trifluoromethyl)-1H-pyrazol-4-yl)-1-oxo-3,4-dihydroisoquinolin-2(1H)-yl)-6-methoxy-2-methylquinoline-8-carboxamide] | < 20 nM
COc1cc(N2CCN(C)C(=O)C2)c2nc(C)cc(N3CCc4c(cc(Cn5ccnc5)cc4-c4cn(C)nc4C(F)(F)F)C3=O)c2c1 [Example 105, 7-((1H-Imidazol-1-yl)methyl)-2-(6-methoxy-2-methyl-8-(4-methyl-3-oxopiperazin-1-yl)quinolin-4-yl)-5-(1-methyl-3-(trifluoromethyl)-1H-pyrazol-4-yl)-3,4-dihydroisoquinolin-1(2H)-one] | < 20 nM
COc1cc(C(N)=O)c2nccc(N3CCc4c(cc(Cn5ccnc5)cc4-c4cn(C)nc4C(F)(F)F)C3=O)c2c1 [Example 41, 4-(7-((1H-Imidazol-1-yl)methyl)-5-(1-methyl-3-(trifluoromethyl)-1H-pyrazol-4-yl)-1-oxo-3,4-dihydroisoquinolin-2(1H)-yl)-6-methoxyquinoline-8-carboxamide] | 24 nM
COc1cc(C(=O)N(C)C)c2nccc(N3CCc4c(cc(Cn5ccnc5)cc4-c4cn(C)nc4C(F)(F)F)C3=O)c2c1 [Example 45, 4-(7-((1H-Imidazol-1-yl)methyl)-5-(1-methyl-3-(trifluoromethyl)-1H-pyrazol-4-yl)-1-oxo-3,4-dihydroisoquinolin-2(1H)-yl)-6-methoxy-N,N-dimethylquinoline-8-carboxamide] | 326 nM
COc1cc(C(=O)O)c2nccc(N3CCc4c(cc(Cn5ccnc5)cc4-c4cn(C)nc4C(F)(F)F)C3=O)c2c1 [Example 40, 4-(7-((1H-Imidazol-1-yl)methyl)-5-(1-methyl-3-(trifluoromethyl)-1H-pyrazol-4-yl)-1-oxo-3,4-dihydroisoquinolin-2(1H)-yl)-6-methoxyquinoline-8-carboxylic acid] | 291 nM
CCOC(=O)c1cc(CC)cc2c(N3CCc4c(cc(Cn5ccnc5)cc4-c4cn(C)nc4C(F)(F)F)C3=O)cc(C)nc12 [Example 162, ethyl 4-(7-((1H-imidazol-1-yl)methyl)-5-(1-methyl-3-(trifluoromethyl)-1H-pyrazol-4-yl)-1-oxo-3,4-dihydroisoquinolin-2(1H)-yl)-6-ethyl-2-methylquinoline-8-carboxylate] | 88 nM
CCc1cc(N2CCN(C3COC3)CC2)c2nccc(N3CCc4c(cc(Cn5ccnc5)cc4-c4cn(C)nc4C(F)(F)F)C3=O)c2c1 [Example 215, 7-((1H-Imidazol-1-yl)methyl)-2-(6-ethyl-8-(4-(oxetan-3-yl)piperazin-1-yl)quinolin-4-yl)-5-(1-methyl-3-(trifluoromethyl)-1H-pyrazol-4-yl)-3,4-dihydroisoquinolin-1(2H)-one] | < 20 nM
CCc1cc(C(=O)NC2CN(C(=O)c3ccncc3)C2)c2nccc(N3CCc4c(cc(Cn5ccnc5)cc4-c4cn(C)nc4C(F)(F)F)C3=O)c2c1 [Example 225] | < 20 nM
COc1cc(N2CCC(NC(C)=O)CC2)c2nc(C)cc(N3CCc4c(cc(Cn5ccnc5)cc4-c4cn(C)nc4C(F)(F)F)C3=O)c2c1 [Example 192, N-(1-(4-(7-((1H-Imidazol-1-yl)methyl)-5-(1-methyl-3-(trifluoromethyl)-1H-pyrazol-4-yl)-1-oxo-3,4-dihydroisoquinolin-2(1H)-yl)-6-methoxy-2-methylquinolin-8-yl)piperidin-4-yl)acetamide] | < 20 nM
COc1cc(C(=O)N2CCN(C)CC2)c2nccc(N3CCc4c(cc(Cn5ccnc5)cc4-c4cn(C)nc4C(F)(F)F)C3=O)c2c1 [Example 43, 7-((1H-Imidazol-1-yl)methyl)-2-(6-methoxy-8-(4-methylpiperazine-1-carbonyl)quinolin-4-yl)-5-(1-methyl-3-(trifluoromethyl)-1H-pyrazol-4-yl)-3,4-dihydroisoquinolin-1(2H)-one] | 563 nM
CCc1cc(-c2cccn2C)c2nccc(N3CCc4c(cc(Cn5ccnc5)cc4-c4cn(C)nc4C(F)(F)F)C3=O)c2c1 [Example 97, 7-((1H-Imidazol-1-yl)methyl)-2-(6-ethyl-8-(1-methyl-1H-pyrrol-2-yl)quinolin-4-yl)-5-(1-methyl-3-(trifluoromethyl)-1H-pyrazol-4-yl)-3,4-dihydroisoquinolin-1(2H)-one] | 83 nM
